# In paper PMC6753678, “Fueling Open Innovation for Malaria Transmission-Blocking Drugs: Hundreds of Molecules Targeting Early Parasite Mosquito Stages” (Frontiers in Microbiology, 2019):
# pIC50: −log10 of the molar value. Like-named read-outs stand apart in the source and are kept apart here.
# What was measured:
# [1] = test system: P. falciparum late stage (stages IV-V) gametocytes; set-up: method as in Almela et al 2016; conditions: TCAMS screen comparison; ref Almela et al 2016; read-out: Pf GCT ATP IC50; cited from earlier work
# HepG2 cells [2] = assay: HepG2 cytotoxicity assay; conditions: HepG2 cytotoxicity unified across the three screens
# In short: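 Cells at 2,500 per well in MEM with 10% fetal bovine serum and 1% NEAA were exposed to test compounds for 48 h at 37°C, 5% CO2. Viability was read by fluorescence, with percent inhibition calculated against 50 μM doxorubicin (positive) and DMSO (negative) controls.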
# [3] = test system: P. falciparum female gametocytes; set-up: method as in Miguel-Blanco et al 2017; conditions: TCAMS screen comparison; ref Miguel-Blanco et al 2017; read-out: Pf FGAA IC50; cited from earlier work
# HepG2 cells [4] = conditions: cited from earlier work
# [5] = test system: P. falciparum female gametocytes; assay: P. falciparum female gametogenesis assay (Pf FGAA); conditions: 1: YES; 0: NO
# [6] = test system: P. falciparum late stage (stages IV-V) gametocytes; assay: P. falciparum late stage gametocyte ATP depletion assay (Pf GC-ATP); conditions: 1: YES; 0: NO
# [7] = value reported with the Pf FGAA screen, ref Miguel-Blanco et al 2017
# [8] = value reported with the Pf GCT ATP screen, ref Almela et al 2016
structure (smiles),measurement,setting,value
COc1ccc(CCNCCCCCCNCCc2ccc(-c3ccccc3)cc2)cc1OC.Cl [TCMDC-131267],pIC50,[1],6.77
same,Unified cytotox,HepG2 cells [2],5.07 µM
same,pIC50,[3],5.90
same,HepG2 cytoxicity,HepG2 cells [4]; [7],6.90 µM
same,HepG2 cytoxicity,HepG2 cells [4]; [8],3.25 µM
same,Is compound selective in assay? Pf FGAA active?,[5],0 (0: NO)
same,Is compound selective in assay? Pf GC-ATP active?,[6],1 (1: YES)
COc1ccc(CCNCCCCCCNCCc2ccc(Cl)c3ccccc23)cc1OC.Cl [TCMDC-131270],pIC50,[1],6.89
same,Unified cytotox,HepG2 cells [2],2.68 µM
same,pIC50,[3],6.24
same,HepG2 cytoxicity,HepG2 cells [4]; [7],2.12 µM
same,HepG2 cytoxicity,HepG2 cells [4]; [8],3.23 µM
same,Is compound selective in assay? Pf FGAA active?,[5],0 (0: NO)
same,Is compound selective in assay? Pf GC-ATP active?,[6],1 (1: YES)
Br.Oc1ccc(CCNCCCCCCNCCc2ccc(Cl)c3ccccc23)cc1O [TCMDC-131271],pIC50,[1],6.28
same,Unified cytotox,HepG2 cells [2],12.36 µM
same,pIC50,[3],5.62
same,HepG2 cytoxicity,HepG2 cells [4]; [7],11.22 µM
same,HepG2 cytoxicity,HepG2 cells [4]; [8],13.5 µM
same,Is compound selective in assay? Pf FGAA active?,[5],0 (0: NO)
same,Is compound selective in assay? Pf GC-ATP active?,[6],1 (1: YES)
COc1ccc(CCNCCCCCCNCCc2ccc(Cl)cc2)c(Cl)c1OC.Cl [TCMDC-131272],pIC50,[1],6.59
same,Unified cytotox,HepG2 cells [2],5.87 µM
same,pIC50,[3],6.08
same,HepG2 cytoxicity,HepG2 cells [4]; [7],5.54 µM
same,HepG2 cytoxicity,HepG2 cells [4]; [8],6.2 µM
same,Is compound selective in assay? Pf FGAA active?,[5],0 (0: NO)
same,Is compound selective in assay? Pf GC-ATP active?,[6],1 (1: YES)
Br.CCCCc1ccc(CCNCCCCCCNCCc2ccc(O)c(O)c2)cc1 [TCMDC-131281],pIC50,[1],6.27
same,Unified cytotox,HepG2 cells [2],6.41 µM
same,pIC50,[3],5.67
same,HepG2 cytoxicity,HepG2 cells [4]; [7],4.63 µM
same,HepG2 cytoxicity,HepG2 cells [4]; [8],8.19 µM
same,Is compound selective in assay? Pf FGAA active?,[5],0 (0: NO)
same,Is compound selective in assay? Pf GC-ATP active?,[6],1 (1: YES)
CCC(CSC1CCCCC1)N(C)CCN(C)C(CC)CSC1CCCCC1.Cl (stereo not drawn) [TCMDC-131456],pIC50,[1],5.85
same,Unified cytotox,HepG2 cells [2],0.47 µM
same,pIC50,[3],5.90
same,HepG2 cytoxicity,HepG2 cells [4]; [7],0.0654 µM
same,HepG2 cytoxicity,HepG2 cells [4]; [8],0.87 µM
same,Is compound selective in assay? Pf FGAA active?,[5],0 (0: NO)
same,Is compound selective in assay? Pf GC-ATP active?,[6],0 (0: NO)
C[C@H](Cc1ccc(C[C@@H](C)NC[C@H](O)c2cccc(Cl)c2)cc1)NC[C@H](O)COc1ccccc1.Cl [TCMDC-131549],pIC50,[1],6.04
same,Unified cytotox,HepG2 cells [2],4.94 µM
same,pIC50,[3],5.86
same,HepG2 cytoxicity,HepG2 cells [4]; [7],5.19 µM
same,HepG2 cytoxicity,HepG2 cells [4]; [8],4.7 µM
same,Is compound selective in assay? Pf FGAA active?,[5],0 (0: NO)
same,Is compound selective in assay? Pf GC-ATP active?,[6],0 (0: NO)
C[C@H](Cc1ccc(CCc2ccc(C[C@@H](C)NC[C@H](O)c3cccc(Cl)c3)cc2)cc1)NC[C@H](O)c1cccc(Cl)c1.Cl [TCMDC-131551],pIC50,[1],6.57
same,Unified cytotox,HepG2 cells [2],3.68 µM
same,pIC50,[3],5.69
same,HepG2 cytoxicity,HepG2 cells [4]; [7],4.27 µM
same,HepG2 cytoxicity,HepG2 cells [4]; [8],3.1 µM
same,Is compound selective in assay? Pf FGAA active?,[5],0 (0: NO)
same,Is compound selective in assay? Pf GC-ATP active?,[6],1 (1: YES)
C[C@H](Cc1ccc(Oc2ccc(C[C@@H](C)NC[C@H](O)c3cccc(Cl)c3)cc2)cc1)NC[C@H](O)c1cccc(Cl)c1.Cl [TCMDC-131560],pIC50,[1],6.57
same,Unified cytotox,HepG2 cells [2],1.98 µM
same,pIC50,[3],6.14
same,HepG2 cytoxicity,HepG2 cells [4]; [7],2.04 µM
same,HepG2 cytoxicity,HepG2 cells [4]; [8],1.91 µM
same,Is compound selective in assay? Pf FGAA active?,[5],0 (0: NO)
same,Is compound selective in assay? Pf GC-ATP active?,[6],0 (0: NO)
C[C@H](Cc1ccc(OCCCCCOc2ccc(C[C@@H](C)NC[C@H](O)c3cccc(Cl)c3)cc2)cc1)NC[C@H](O)c1cccc(Cl)c1.Cl [TCMDC-131563],pIC50,[1],6.26
same,Unified cytotox,HepG2 cells [2],1.95 µM
same,pIC50,[3],6.02
same,HepG2 cytoxicity,HepG2 cells [4]; [7],2.11 µM
same,HepG2 cytoxicity,HepG2 cells [4]; [8],1.79 µM
same,Is compound selective in assay? Pf FGAA active?,[5],0 (0: NO)
same,Is compound selective in assay? Pf GC-ATP active?,[6],0 (0: NO)
N=C(/N=C(/NCCCCCCN/C(=N\C(=N)Nc1ccc(Cl)cc1)N1CCCCC1)N1CCCCC1)Nc1ccc(Cl)cc1 [TCMDC-131811],pIC50,[1],6.42
same,Unified cytotox,HepG2 cells [2],33.57 µM
same,pIC50,[3],5.10
same,HepG2 cytoxicity,HepG2 cells [4]; [7],44.23 µM
same,HepG2 cytoxicity,HepG2 cells [4]; [8],22.9 µM
same,Is compound selective in assay? Pf FGAA active?,[5],0 (0: NO)
same,Is compound selective in assay? Pf GC-ATP active?,[6],1 (1: YES)
N=C(/N=C(/NCCCCCCN/C(=N/C(=N)NCc1ccc(Cl)c(Cl)c1)N1CCCCC1)N1CCCCC1)NCc1ccc(Cl)c(Cl)c1 [TCMDC-131816],pIC50,[1],6.43
same,Unified cytotox,HepG2 cells [2],43.18 µM
same,pIC50,[3],5.58
same,HepG2 cytoxicity,HepG2 cells [4]; [7],43.18 µM
same,HepG2 cytoxicity,HepG2 cells [4]; [8],>25 µM
same,Is compound selective in assay? Pf FGAA active?,[5],1 (1: YES)
same,Is compound selective in assay? Pf GC-ATP active?,[6],1 (1: YES)
